Active and inactive are the calls of the source. No cut-off for these calls is given here.
Columns and labels:
LoVo = assay: Cytotoxicity against human LoVo cells at 10 ug/mL after 24 hrs by MTT assay; format: functional, cell-based
KB = assay: Cytotoxicity against human KB cells at 10 ug/mL after 24 hrs by MTT assay; format: functional, cell-based
MOLT-4 = assay: Cytotoxicity against human MOLT4 cells after 24 hrs by MTT assay; format: functional, cell-based; conditions: MOLT-4, 24 h
[1] = Toxicity in brine shrimp at 10 ppm; format: organism-based; conditions: artemia, in vivo; read-out: Activity
MCF7 = assay: Cytotoxicity against human MCF7 cells after 24 hrs by MTT assay; format: functional, cell-based; conditions: MCF7, 24 h
[2] = Toxicity in brine shrimp at 100 ppm; format: organism-based; conditions: artemia, in vivo; read-out: Activity

SMILES	Activity (LoVo)	Activity (KB)	IC50 (MOLT-4) [nM]	mortality at 10 ppm [1] [%]	IC50 (MCF7) [nM]	mortality at 100 ppm [2] [%]
C#CCCC[C@H]1OC(=O)[C@H]([C@@H](C)CC)NC(=O)[C@@H]2CCCN2C(=O)[C@H](Cc2ccccc2)OC(=O)[C@H](C(C)C)N(C)C(=O)[C@H](C(C)C)NC(=O)[C@H]1C	inactive	inactive				
C#CCCC[C@@H]1OC(=O)[C@H](C(C)C)N(C)C(=O)[C@@H]2CCCN2C(=O)[C@H](Cc2ccccc2)OC(=O)[C@H]([C@@H](C)CC)N(C)C(=O)[C@H](C(C)C)NC(=O)C1C (stereo partly drawn) [HANTUPEPTIN A]	inactive	inactive	32	100	4000	100

Reference: ChEMBL document CHEMBL1151483, “Hantupeptin A, a cytotoxic cyclic depsipeptide from a Singapore collection of Lyngbya majuscula” (J Nat Prod, 2009)
